Data as given in ChEMBL document CHEMBL1201862, “PubChem BioAssay data set” (2004).
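How tested: cells in 96-well plates exposed to compound for 48 hours at five concentrations. GI50 marks 50% less growth.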 Active and inactive are the calls of the source. No stated cut-off is given here; in the data, active = GI50 up to about 1.1 µM and inactive = higher.

Tests used:
Test in all cases: NCI-60 cell line screen, 48 h
[1] = tested on: Hs-578T
[2] = tested on: HL-60
[3] = tested on: IGROV-1
[4] = tested on: HCT-116
[5] = tested on: MDA-N
[6] = tested on: KM12
[7] = tested on: SK-OV-3
[8] = tested on: SK-MEL-5
[9] = tested on: HOP-92
[10] = tested on: SF-295
[11] = tested on: NCI/ADR-RES
[12] = tested on: DU-145
[13] = tested on: A549
[14] = tested on: HCT-15
[15] = tested on: HT-29
[16] = tested on: U-251
[17] = tested on: OVCAR-3
[18] = tested on: OVCAR-5
[19] = tested on: MDA-MB-435
[20] = tested on: SF-539
[21] = tested on: SK-MEL-28
[22] = tested on: CAKI-1
[23] = tested on: HCC 2998
[24] = tested on: OVCAR-4
[25] = tested on: SK-MEL-2
[26] = tested on: MCF7
[27] = tested on: UO-31
[28] = tested on: COLO 205
[29] = tested on: Malme-3M
[30] = tested on: M14
[31] = tested on: EKVX
[32] = tested on: SW-620
[33] = tested on: SR
[34] = tested on: SN12C
[35] = tested on: A498
[36] = tested on: ACHN
[37] = tested on: LOX IMVI
[38] = tested on: HOP-62
[39] = tested on: NCI-H23
[40] = tested on: UACC-257
[41] = tested on: SNB-75
[42] = tested on: OVCAR-8
[43] = tested on: UACC-62
[44] = tested on: MDA-MB-231
[45] = tested on: 786-0
[46] = tested on: SF-268
[47] = tested on: BT-549
[48] = tested on: RXF 393
[49] = tested on: RPMI-8226
[50] = tested on: CCRF-CEM
[51] = tested on: T47D
[52] = tested on: PC-3
[53] = tested on: TK-10
[54] = tested on: NCI-H460
[55] = tested on: NCI-H522
[56] = tested on: SNB-19
[57] = tested on: K562
[58] = tested on: MOLT-4
[59] = tested on: NCI-H226

Q: With C=C1C2CCC3(CCC4C5(C)CCCC4(C=[N+](CCO)C5)C3C2)C1O (configuration not stated) as the compound, how does the GI50 [1] read?
A: > 100 µM (inactive)

Q: And the GI50 [2]?
A: > 100 µM (inactive)

Q: What about the GI50 [3] of the same compound?
A: > 100 µM (inactive)

Q: What about the GI50 [4] of the same compound?
A: > 100 µM (inactive)

Q: What about the GI50 [5] of the same compound?
A: > 100 µM (inactive)

Q: And the GI50 [6]?
A: > 100 µM (inactive)

Q: What about the GI50 [7] of the same compound?
A: > 100 µM (inactive)

Q: And the GI50 [8]?
A: > 100 µM (inactive)

Q: And the GI50 [9]?
A: > 100 µM (inactive)

Q: What about the GI50 [10] of the same compound?
A: > 100 µM (inactive)

Q: And the GI50 [11]?
A: > 100 µM (inactive)

Q: What about the GI50 [12] of the same compound?
A: > 100 µM (inactive)

Q: What about the GI50 [13] of the same compound?
A: > 100 µM (inactive)

Q: And the GI50 [14]?
A: > 100 µM

Q: What about the GI50 [15] of the same compound?
A: > 100 µM (inactive)

Q: And the GI50 [16]?
A: > 100 µM (inactive)

Q: What about the GI50 [17] of the same compound?
A: > 100 µM (inactive)

Q: What about the GI50 [18] of the same compound?
A: > 100 µM (inactive)

Q: What about the GI50 [19] of the same compound?
A: > 100 µM (inactive)

Q: What about the GI50 [20] of the same compound?
A: > 100 µM (inactive)

Q: What about the GI50 [21] of the same compound?
A: > 100 µM (inactive)

Q: And the GI50 [22]?
A: > 100 µM (inactive)

Q: What about the GI50 [23] of the same compound?
A: > 100 µM (inactive)

Q: What about the GI50 [24] of the same compound?
A: > 100 µM (inactive)

Q: And the GI50 [25]?
A: > 100 µM (inactive)

Q: What about the GI50 [26] of the same compound?
A: > 100 µM (inactive)

Q: What about the GI50 [27] of the same compound?
A: > 100 µM (inactive)

Q: What about the GI50 [28] of the same compound?
A: > 100 µM (inactive)

Q: And the GI50 [29]?
A: > 100 µM (inactive)

Q: What about the GI50 [30] of the same compound?
A: > 100 µM (inactive)

Q: What about the GI50 [31] of the same compound?
A: > 100 µM (inactive)

Q: And the GI50 [32]?
A: > 100 µM (inactive)

Q: What about the GI50 [33] of the same compound?
A: > 100 µM (inactive)

Q: What about the GI50 [34] of the same compound?
A: > 100 µM (inactive)

Q: What about the GI50 [35] of the same compound?
A: > 100 µM (inactive)

Q: What about the GI50 [36] of the same compound?
A: > 100 µM (inactive)

Q: What about the GI50 [37] of the same compound?
A: > 100 µM (inactive)

Q: And the GI50 [38]?
A: > 100 µM (inactive)

Q: What about the GI50 [39] of the same compound?
A: > 100 µM (inactive)

Q: And the GI50 [40]?
A: > 100 µM (inactive)

Q: What about the GI50 [41] of the same compound?
A: > 100 µM (inactive)

Q: What about the GI50 [42] of the same compound?
A: > 100 µM (inactive)

Q: And the GI50 [43]?
A: > 100 µM (inactive)

Q: And the GI50 [44]?
A: > 100 µM (inactive)

Q: What about the GI50 [45] of the same compound?
A: > 100 µM (inactive)

Q: What about the GI50 [46] of the same compound?
A: > 100 µM (inactive)

Q: And the GI50 [47]?
A: > 100 µM (inactive)

Q: What about the GI50 [48] of the same compound?
A: > 100 µM (inactive)

Q: What about the GI50 [49] of the same compound?
A: > 100 µM (inactive)

Q: And the GI50 [50]?
A: > 100 µM (inactive)

Q: What about the GI50 [51] of the same compound?
A: > 100 µM (inactive)

Q: What about the GI50 [52] of the same compound?
A: > 100 µM (inactive)

Q: What about the GI50 [53] of the same compound?
A: > 100 µM (inactive)

Q: And the GI50 [54]?
A: > 100 µM (inactive)

Q: And the GI50 [55]?
A: > 100 µM (inactive)

Q: What about the GI50 [56] of the same compound?
A: > 100 µM (inactive)

Q: And the GI50 [57]?
A: > 10 µM (inactive)

Q: How did the GI50 [1] turn out when Cc1ccc2c3c1[C@@H]1O[C@@H]1c1cccc(c1-3)[C@@H]1O[C@H]21 was run?
A: 21.3 µM (inactive)

Q: And the GI50 [4]?
A: 5.24 µM (inactive)

Q: And the GI50 [5]?
A: 14.4 µM (inactive)

Q: And the GI50 [6]?
A: 12.4 µM (inactive)

Q: And the GI50 [7]?
A: 26.7 µM (inactive)

Q: What about the GI50 [8] of the same compound?
A: 15 µM (inactive)

Q: And the GI50 [9]?
A: 18.1 µM (inactive)

Q: And the GI50 [10]?
A: 15.8 µM (inactive)

Q: And the GI50 [11]?
A: 18.2 µM (inactive)

Q: What about the GI50 [12] of the same compound?
A: 11 µM (inactive)

Q: What about the GI50 [13] of the same compound?
A: 15.9 µM (inactive)

Q: What about the GI50 [14] of the same compound?
A: 15.3 µM

Q: And the GI50 [15]?
A: 6.07 µM (inactive)

Q: What about the GI50 [16] of the same compound?
A: 11.9 µM (inactive)

Q: What about the GI50 [18] of the same compound?
A: 18.1 µM (inactive)

Q: What about the GI50 [19] of the same compound?
A: 14.1 µM (inactive)

Q: And the GI50 [21]?
A: 10.2 µM (inactive)

Q: And the GI50 [22]?
A: 16.4 µM (inactive)

Q: And the GI50 [24]?
A: 17.5 µM (inactive)

Q: What about the GI50 [25] of the same compound?
A: 16.1 µM (inactive)

Q: What about the GI50 [26] of the same compound?
A: 4.66 µM (inactive)

Q: What about the GI50 [27] of the same compound?
A: 12 µM (inactive)

Q: What about the GI50 [28] of the same compound?
A: 15.8 µM (inactive)

Q: What about the GI50 [29] of the same compound?
A: 15.3 µM (inactive)

Q: And the GI50 [30]?
A: 11 µM (inactive)

Q: What about the GI50 [31] of the same compound?
A: 16.1 µM (inactive)

Q: And the GI50 [33]?
A: 11.5 µM (inactive)

Q: What about the GI50 [34] of the same compound?
A: 11.1 µM (inactive)

Q: And the GI50 [35]?
A: 19.1 µM (inactive)

Q: What about the GI50 [36] of the same compound?
A: 12.7 µM (inactive)

Q: What about the GI50 [37] of the same compound?
A: 2.4 µM (inactive)

Q: And the GI50 [38]?
A: 15.7 µM (inactive)

Q: What about the GI50 [39] of the same compound?
A: 15.1 µM (inactive)

Q: What about the GI50 [58] of the same compound?
A: 3.96 µM (inactive)

Q: And the GI50 [40]?
A: 15.9 µM (inactive)

Q: What about the GI50 [41] of the same compound?
A: 2.38 µM (inactive)

Q: And the GI50 [42]?
A: 11.5 µM (inactive)

Q: What about the GI50 [43] of the same compound?
A: 20 µM (inactive)

Q: What about the GI50 [44] of the same compound?
A: 18 µM (inactive)

Q: What about the GI50 [46] of the same compound?
A: 12.8 µM (inactive)

Q: What about the GI50 [47] of the same compound?
A: 17.9 µM (inactive)

Q: And the GI50 [51]?
A: 3.08 µM (inactive)

Q: And the GI50 [52]?
A: 15 µM (inactive)

Q: What about the GI50 [53] of the same compound?
A: 18.2 µM (inactive)

Q: What about the GI50 [55] of the same compound?
A: 12.2 µM (inactive)

Q: What about the GI50 [56] of the same compound?
A: 19.8 µM (inactive)

Q: And the GI50 [59]?
A: 28.2 µM (inactive)

Q: And the GI50 [57]?
A: 4.29 µM (inactive)

Q: What does the source list for CC(C)(C)c1cc(C(O)(C(=O)O)C(=O)O)cc(C(C)(C)C)c1O?
A: GI50 [1]: > 100 µM (inactive); GI50 [2]: > 100 µM (inactive); GI50 [3]: > 100 µM (inactive); GI50 [4]: > 100 µM (inactive); GI50 [5]: > 100 µM (inactive); GI50 [6]: > 100 µM (inactive); GI50 [7]: > 100 µM (inactive); GI50 [8]: > 100 µM (inactive); GI50 [9]: > 100 µM (inactive); GI50 [10]: > 100 µM (inactive); GI50 [11]: > 100 µM (inactive); GI50 [12]: > 100 µM (inactive); GI50 [13]: > 100 µM (inactive); GI50 [14]: > 100 µM; GI50 [15]: > 100 µM (inactive); GI50 [16]: > 100 µM (inactive); GI50 [17]: > 100 µM (inactive); GI50 [18]: > 100 µM (inactive); GI50 [19]: > 100 µM (inactive); GI50 [20]: > 100 µM (inactive); GI50 [21]: > 100 µM (inactive); GI50 [22]: > 100 µM (inactive); GI50 [24]: > 100 µM (inactive); GI50 [25]: > 100 µM (inactive); GI50 [26]: > 100 µM (inactive); GI50 [27]: > 100 µM (inactive); GI50 [28]: > 100 µM (inactive); GI50 [29]: > 100 µM (inactive); GI50 [30]: > 100 µM (inactive); GI50 [31]: > 100 µM (inactive); GI50 [32]: > 100 µM (inactive); GI50 [33]: > 100 µM (inactive); GI50 [34]: > 100 µM (inactive); GI50 [35]: > 100 µM (inactive); GI50 [36]: > 100 µM (inactive); GI50 [37]: > 100 µM (inactive); GI50 [38]: > 100 µM (inactive); GI50 [39]: > 100 µM (inactive); GI50 [58]: > 100 µM (inactive); GI50 [40]: > 100 µM (inactive); GI50 [41]: > 100 µM (inactive); GI50 [42]: > 100 µM (inactive); GI50 [43]: > 100 µM (inactive); GI50 [44]: > 100 µM (inactive); GI50 [45]: > 100 µM (inactive); GI50 [46]: > 100 µM (inactive); GI50 [47]: > 100 µM (inactive); GI50 [48]: > 100 µM (inactive); GI50 [49]: > 100 µM (inactive); GI50 [50]: > 100 µM (inactive); GI50 [51]: > 100 µM (inactive); GI50 [52]: > 100 µM (inactive); GI50 [53]: > 100 µM (inactive); GI50 [55]: > 100 µM (inactive); GI50 [56]: > 100 µM (inactive); GI50 [59]: > 100 µM (inactive); GI50 [57]: > 100 µM (inactive)
